The results in this text go back to EP0830813B1, “Fungicidal compositions” (Aventis CropScience UK Limited, priority 1996, dated 1998).

The structures appear in SMILES notation.

Common to all, as to assay type: in vivo
For one experiment, the system named is Elysiphe graminis. The experiment in a line: Control of Elysiphe graminis infection on sprayed winter wheat, assessed after 14 days. The settings on record: spray, average of 3 replicates. Here is the method:
Winter wheat was sprayed with cyprodinil, PBO and mixtures of the two. Thirty three days after application the winter wheat was assessed for levels of Leptosphaeria nodorum compared with untreated cereal, whereby the level of control could be calculated. Results (average of 4 replicates) are shown below. In a similar experiment levels of […] graminis infection were determined after 14 days. Results (average of 3 replicates) are shown below.

The subject of a further experiment is Leptosphaeria nodorum. Kind of experiment: Control of Leptosphaeria nodorum on sprayed winter wheat, assessed 33 days after application. The note with it: spray, vs untreated, average of 4 replicates. Here is the method: Winter wheat was sprayed with cyprodinil, PBO and mixtures of the two. Thirty three days after application the winter wheat was assessed for levels of Leptosphaeria nodorum compared with untreated cereal, whereby the level of control could be calculated. Results (average of 4 replicates) are shown below.

Experiment [1] has as its system Leptosphaeria nodorum and Septoria tritici mixed infection. The experiment in a line: Control of Leptosphaeria nodorum and Septoria tritici mixed infection on sprayed winter wheat, assessed 23 days after application. The settings on record: spray, average of 4 replicates. Here is the method:
Winter wheat was sprayed with cyprodinil, PBO and mixtures of the two. Thirty three days after application the winter wheat was assessed for levels of Leptosphaeria nodorum compared with untreated cereal, whereby the level of control could be calculated. Results (average of 4 replicates) are shown below. In a similar experiment, levels of Leptosphaeria nodorum and Septoria tritici mixed infection were assessed 23 days after application. Results (average of 4 replicates) are shown below.

The next experiment has as its system Erysiphe graminis. The experiment in a line: Control of Erysiphe graminis infection on sprayed winter wheat, assessed after 30 days. The note with it: spray, average of 4 replicates. Here is the method: Winter wheat was sprayed with cyprodinil, PBO and mixtures of the two. Thirty three days after application the winter wheat was assessed for levels of Leptosphaeria nodorum compared with untreated cereal, whereby the level of control could be calculated. Results (average of 4 replicates) are shown below. In a similar experiment levels of Erysiphe graminis infection were determined after 30 days. Results (average of 4 replicates) are shown below.

Turning to `CCCCOCCOCCOCc1cc2c(cc1CCC)OCO2` [PBO, piperonyl butoxide], the “% control” value (in the experiment with Elysiphe graminis (300 g ai/ha); with Leptosphaeria nodorum (300 g ai / ha); in experiment [1] (300 g ai / ha); in the experiment with Erysiphe graminis (300 g ai / ha)) was 0.0% each time.

As to `Cc1cc(C2CC2)nc(Nc2ccccc2)n1` [cyprodinil], the “% control” value in the experiment with Elysiphe graminis (150 g ai/ha) was 35%; with Elysiphe graminis (300 g ai/ha), 67%; with Elysiphe graminis (600 g ai/ha), 98%; in the experiment on Leptosphaeria nodorum (600 g ai / ha), 23.1%; in experiment [1] (600 g ai / ha), 0.0%; in the experiment with Erysiphe graminis (600 g ai / ha), 34.4%.
